Settings: Crystal, Calculated from knudsen effusion weight loss

[Cu][Br] [copper(1+) bromide]
Settings	vapor or sublimation pressure [kPa]
528.8 K	1.17e-05
530.1 K	9.37e-06
532 K	1.25e-05
551.4 K	2.45e-05
551.6 K	3.17e-05
553.5 K	4.55e-05
570.8 K	9.35e-05
572.6 K	0.000104
573.5 K	0.000113
592.1 K	0.000235
593.8 K	0.000273
594.6 K	0.000301
611.9 K	0.000512
614.9 K	0.000595
618.1 K	0.000705
633 K	0.00115
634.1 K	0.00121
635 K	0.00109
655.2 K	0.00229
656.8 K	0.00229
658.2 K	0.00269

[Br-].[Br-].[Zn+2] [zinc bromide]
Settings	vapor or sublimation pressure [kPa]
452.5 K	2.26e-05
452.8 K	2.04e-05
453.1 K	2.07e-05
453.6 K	1.28e-05
469.4 K	4.74e-05
472.1 K	9.63e-05
472.7 K	8.63e-05
473.8 K	7.35e-05
492.8 K	0.000262
493.1 K	0.000181
493.2 K	0.000217
493.9 K	0.000252
511.2 K	0.000691
511.3 K	0.000577
513 K	0.000684
513.1 K	0.000719
528.9 K	0.00158
530.2 K	0.00192
532.9 K	0.00201
533.9 K	0.0019
551.6 K	0.0051
552 K	0.00505
552.7 K	0.00453
552.8 K	0.00521
568 K	0.00978
570.3 K	0.0106
572.3 K	0.00997
574 K	0.0126
